This note sets out measurements from patent publication US20230399342A1 (Incyte Corporation, priority 2022, published 2023).

Where only a bound is given, the exact number is not on record here.

Experiment [1] concerns the target DGKα (Homo sapiens (Human), UniProt P23743). In words: In vitro DGKα inhibition assay (ADP-Glo). Format: biochemical. Particulars: His-tagged human recombinant enzyme, 0.1 nM DGKα, 50 μM ATP, 20 μM DLG, 90 minute incubation. The method, then:
(§1) The DGKα and DGKξ biochemical reactions were performed using His-tagged human recombinant enzymes (Signal Chem, DGKα, #D21-1OBH; DGKξ, #D30-10H)) and DLG (Dilauroyl-sn-glycerol) lipid substrate (Signal Chem, #D430-59). ADP-Glo assay was performed using ADP-Glog™ kinase Assay kit (Promega, #V9104). The reactions were carried out in assay buffer containing 40 mM Tris, pH 7.5, 0.1% CHAPS, 0.1% Prionex, 40 mM NaCl, 5 mM MgCl2, 1 mM CaCl2, and 1 mM DTT. DGKα reactions contained 0.1 nM DGKα, 50 μM ATP, and 20 μM DLG. And DGKC reactions contained 0.4 nM DGK, 30 μM ATP, and 20 μM DLG.
(§2) For compound inhibition studies, 40 nL test compound in DMSO was added to wells of white polystyrene plates in 384-well (Greiner, #784075) or 1536-well format (Greiner, #782075). Compounds were added with top concentration of 2 mM with 11 point, 3-fold dilution series. Enzyme solution (contains 2×DGK enzyme concentration in Ix assay buffer) was added to the plate in 2 μL/well volume, followed by 2 μL/well of substrate solution (contains 2×concentration of ATP and DLG substrate in Ix assay buffer). Plates were then centrifuged for 1 min at 1200 RPM and sealed or lidded. For 4 μL reaction volume, test compounds were therefore diluted 100× to final top concentration of 20 μM. After 90 minute incubation, reactions were quenched by addition of 2 μL/well Promega ADP-Glo Reagent, followed by centrifugation and lidding. After 60 min incubation, 2 μL/well Promega Kinase Detection Reagent was added, plates centrifuged, and incubated for 30 min. Plates were then read using Luminescence method on BMG PHERAstar FSX plate reader. Percent inhibition was calculated and IC50s were determined using 4-parameter fit in Genedata Screener. Labcyte Echo acoustic dispenser was used for compound addition, and Formulatrix Tempest liquid handler was used for all reagent dispenses.
On the technique in general: ADP-Glo turns the ADP formed in a reaction into a luminescent signal.

Experiment [2] has as its target DGKζ (Homo sapiens (Human), UniProt Q13574). Briefly: In vitro DGKζ inhibition assay (ADP-Glo). Format: biochemical. Particulars: His-tagged human recombinant enzyme, 0.4 nM DGK, 30 μM ATP, 20 μM DLG, 90 minute incubation. The method, then:
as §1, §2

Sequence of DGKα (P23743 whole entry): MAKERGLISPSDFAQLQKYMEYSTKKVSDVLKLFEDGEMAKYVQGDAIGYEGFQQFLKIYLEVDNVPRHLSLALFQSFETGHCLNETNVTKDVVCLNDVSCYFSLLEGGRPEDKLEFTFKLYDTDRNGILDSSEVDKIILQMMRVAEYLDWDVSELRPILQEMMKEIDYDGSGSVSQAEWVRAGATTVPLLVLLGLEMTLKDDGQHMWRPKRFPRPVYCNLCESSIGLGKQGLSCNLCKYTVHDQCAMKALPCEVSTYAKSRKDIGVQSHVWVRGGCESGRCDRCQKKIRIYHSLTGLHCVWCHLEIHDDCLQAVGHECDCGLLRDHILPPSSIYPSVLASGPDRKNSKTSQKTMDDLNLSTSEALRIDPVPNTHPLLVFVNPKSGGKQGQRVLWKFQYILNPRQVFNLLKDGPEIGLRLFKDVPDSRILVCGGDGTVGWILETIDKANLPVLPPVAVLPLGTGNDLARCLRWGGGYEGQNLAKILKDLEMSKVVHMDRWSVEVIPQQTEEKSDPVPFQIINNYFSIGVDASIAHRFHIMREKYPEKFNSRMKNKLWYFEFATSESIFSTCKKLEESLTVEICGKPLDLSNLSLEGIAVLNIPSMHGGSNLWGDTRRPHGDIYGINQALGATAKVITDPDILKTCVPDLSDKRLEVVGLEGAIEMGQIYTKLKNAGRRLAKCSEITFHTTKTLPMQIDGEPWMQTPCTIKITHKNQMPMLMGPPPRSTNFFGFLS
Sequence of DGKζ (Q13574 whole entry): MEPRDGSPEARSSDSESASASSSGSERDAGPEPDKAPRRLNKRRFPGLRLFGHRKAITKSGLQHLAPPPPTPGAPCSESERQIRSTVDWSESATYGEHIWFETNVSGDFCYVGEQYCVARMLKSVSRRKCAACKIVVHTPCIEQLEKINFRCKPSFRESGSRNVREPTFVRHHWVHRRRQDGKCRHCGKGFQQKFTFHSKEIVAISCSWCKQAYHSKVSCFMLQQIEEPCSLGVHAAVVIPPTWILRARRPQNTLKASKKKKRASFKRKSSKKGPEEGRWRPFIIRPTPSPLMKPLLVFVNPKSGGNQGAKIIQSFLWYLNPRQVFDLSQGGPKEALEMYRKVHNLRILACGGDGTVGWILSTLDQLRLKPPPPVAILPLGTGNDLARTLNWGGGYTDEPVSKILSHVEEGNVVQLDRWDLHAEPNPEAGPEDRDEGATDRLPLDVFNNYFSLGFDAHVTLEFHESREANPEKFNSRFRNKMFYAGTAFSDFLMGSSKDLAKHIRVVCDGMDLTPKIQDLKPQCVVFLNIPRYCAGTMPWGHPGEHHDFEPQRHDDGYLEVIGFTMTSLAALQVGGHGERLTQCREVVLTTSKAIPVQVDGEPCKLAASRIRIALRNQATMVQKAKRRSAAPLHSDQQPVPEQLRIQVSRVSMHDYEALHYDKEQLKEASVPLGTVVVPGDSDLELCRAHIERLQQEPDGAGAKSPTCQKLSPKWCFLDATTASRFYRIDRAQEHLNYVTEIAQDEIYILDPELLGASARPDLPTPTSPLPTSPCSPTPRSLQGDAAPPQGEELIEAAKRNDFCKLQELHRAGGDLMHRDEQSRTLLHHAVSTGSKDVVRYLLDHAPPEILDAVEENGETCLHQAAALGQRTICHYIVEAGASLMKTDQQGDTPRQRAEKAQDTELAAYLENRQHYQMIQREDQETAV

One may read the IC50 as the concentration needed to halve the response being measured. Consider `Cc1nc2c(N3C[C@@H](C)N(C(c4ccc(Cl)c(C(F)(F)F)c4)C4CC(F)(F)C4)C[C@@H]3C)nc3nncn3c2n1C[C@@H]1CCCO1` (stereo partly drawn) [Example 59, 4-((2S,5R)-4-((4-Chloro-3-(trifluoromethyl)phenyl)(3,3-difluorocyclobutyl)methyl)-2,5-dimethylpiperazin-1-yl)-2-methyl-1-(((S)-tetrahydrofuran-2-yl)methyl)-1H-[1,2,4]triazolo[3,4-b]purine], for which the IC50 in experiment [1] and in experiment [2] was at most 0.02 µM each time.
Turning to `C[C@@H]1CN(c2cc3nncn3c3ccsc23)[C@@H](C)CN1C(c1ccc(F)cc1)c1ccc(F)cc1` [Example 11, 5-((2S,5R)-4-(Bis(4-fluorophenyl)methyl)-2,5-dimethylpiperazin-1-yl)thieno[2,3-e][1,2,4]triazolo[4,3-a]pyridine], the results for the IC50 in experiment [1] and in experiment [2] were at most 0.02 µM and over 2 µM, respectively.
Take `CC[C@@H]1CN(c2nc3nncn3c3c2nc(C)n3C[C@@H]2CCCO2)[C@@H](C)CN1C(CO)(c1ccc(F)cc1)c1ccc(F)cc1` [Example 125, 2-((2R,5S)-2-Ethyl-5-methyl-4-(2-methyl-1-(((S)-tetrahydrofuran-2-yl)methyl)-1H-[1,2,4]triazolo[3,4-b]purin-4-yl)piperazin-1-yl)-2,2-bis(4-fluorophenyl)ethan-1-01]: the IC50 in experiment [1] and in experiment [2] was at most 0.02 µM in each case.
In the case of `Cc1nc2c(N3C[C@@H](C)N([C@H](c4ccc(OC(F)F)cc4F)C(C)C)C[C@@H]3C)nc3nncn3c2n1C[C@@H]1CCCO1` [Example 75, 4-((2S,5R)-4-((S)-1-(4-(Difluoromethoxy)-2-fluorophenyl)-2-methylpropyl)-2,5-dimethylpiperazin-1-yl)-2-methyl-1-(((S)-tetrahydrofuran-2-yl)methyl)-1H-[1,2,4]triazolo[3,4-b]purine], the IC50 in experiment [1] and in experiment [2] was at most 0.02 µM throughout.
`CC(C)[C@@H](c1ccc(F)cc1)N1C[C@H](C)N(c2nc3nncn3c3c2ncn3CC2CC2)C[C@H]1C` [Example 22, 1-(Cyclopropylmethyl)-4-((2S,5R)-4-((S)-1-(4-fluorophenyl)-2-methylpropyl)-2,5-dimethylpiperazin-1-yl)-1H-[1,2,4]triazolo[3,4-b]purine]: the IC50 in experiment [1] and in experiment [2] was at most 0.02 µM each time.
Take `CC[C@@H]1CN(c2nc3nncn3c3c2nc(C)n3C[C@@H]2CCCO2)[C@@H](C)CN1[C@H](c1ccc(OC(F)F)cc1)C(C)C` [Example 126, 4-((2S,5R)-4-((S)-1-(4-(Difluoromethoxy)phenyl)-2-methylpropyl)-5-ethyl-2-methylpiperazin-1-yl)-2-methyl-1-(((S)-tetrahydrofuran-2-yl)methyl)-1H-[1,2,4]triazolo[3,4-b]purine]: the IC50 in experiment [1] and in experiment [2] was at most 0.02 µM throughout.
On to `C[C@@H]1CN(c2nc3nncn3c3c2ncn3CCN(C)C)[C@@H](C)CN1C(c1ccc(Cl)cc1)C1CC(F)(F)C1` (single isomer, unassigned) [Example 64], for which the IC50 in experiment [1] and in experiment [2] was at most 0.02 µM throughout.
Turning to `Cc1nc2c(N3C[C@@H](C)N([C@H](c4cccc(C(F)(F)F)c4)C(C)C)C[C@@H]3C)nc3nncn3c2n1C[C@@H]1CCCO1` [Example 69, 4-((2S,5R)-2,5-Dimethyl-4-((S)-2-methyl-1-(3-(trifluoromethyl)phenyl)propyl)piperazin-1-yl)-2-methyl-1-(((S)-tetrahydrofuran-2-yl)methyl)-1H-[1,2,4]triazolo[3,4-b]purine], the IC50 in experiment [1] and in experiment [2] was at most 0.02 µM throughout.
For `Cc1nc2c(N3C[C@@H](C)N([C@@H](c4ccc(OC(F)(F)F)cc4)C(C)C)C[C@@H]3C)nc3nncn3c2n1C[C@@H]1CCCO1` [Example 119, 4-((2S,5R)-2,5-dimethyl-4-((R)-2-methyl-1-(4-(trifluoromethoxy)phenyl)propyl)piperazin-1-yl)-2-methyl-1-(((S)-tetrahydrofuran-2-yl)methyl)-1H-[1,2,4]triazolo[3,4-b]purine], the IC50 in experiment [1] and in experiment [2] was at most 0.02 µM each time.
